Source: patent US6391614B1, “Auxiliary gene and protein of methicillin resistant bacteria and antagonists thereof” (priority 1995, dated 2002)
In brackets after ≈: the same amount, converted by molar mass. Like-named read-outs stand apart in the source and are kept apart here.

How the values were obtained:
SWTD5 (RUSA12F/pGCSW-3) = assay: Standard disk susceptibility, transductant SWTD5; format: cell-based, Staphylococcus aureus; conditions: SWTD5 versus recipient RUSA12F; FIG. 5
Description: (§1) Susceptibility testing and population analysis. One colony of bacterial strain was inoculated into 5 ml of TSB (tryptic soy broth, Difco Laboratories) and incubated at 37° C. with 200 rpm rotation for overnight. Culture density (OD600) was adjusted to give a viable titer of 10^8 to 10^9 cfu/ml. Sterile swabs were dipped into the bacterial suspension and applied to TSA (tryptic soy agar, Difco Laboratories) plates without antibiotics, and 6-mm-diameter disks containing antibiotics were applied to the plates with a disk dispenser (BBL, Beckton-Dickinson and Company). The antibiotics used were as follows: […] of methicillin, 10 U of penicillin, 30 μg of cefazolin, 20 μg of ampicillin/sulbactam, 15 μg of erythromycin, 10 μg of gentamicin, 30 μg of tetracycline, 30 μg chloramphenicol, 5 μg of rifampin, and 5 μg of ciproflaxin (BBL, Becton Dickinson and Company). Diameters of inhibition zones were read after incubation at 37° C. for 24 h. To perform population analysis, aliquots of overnight cultures were spread onto TSA plates containing increasing concentrations of methicillin. CFU were determined after 48 h of incubation at 37° C. [de Lencastre et al., Antimicrob Agents Chemother. 35:632-639 (1991)].
(§2) Complementation analysis with plasmid pGCSW-3. Plasmid pGCSW-3 was transformed into S. aureus RN4220 (r-) by electroporation and the electro-transformant SWET3 was used as donor to introduce pGCSW-3 into recipients RUSA315 and RUSA12F.

SWTD3 (RUSA315/pGCSW-3) [1] = assay: Standard disk susceptibility, transductant SWTD3; format: cell-based, Staphylococcus aureus; conditions: SWTD3 versus recipient RUSA315; FIG. 5
Description: as §1, §2

[2] = system: staphylococci without the mecA gene; conditions: bacteria without mecA; cited from earlier work
[3] = system: mecA Tn551 transposon mutant; conditions: Tn551 inserted into mecA; cited from earlier work
strain COL = conditions: peptidoglycan composition; cited from earlier work
SWTD3 (RUSA315/pGCSW-3) [4] = assay: Population analysis on methicillin-containing TSA plates, SWTD3; format: cell-based, Staphylococcus aureus; conditions: SWTD3, data not shown
Description: as §1

MRSA strain COL [5] = assay: Methicillin MIC, parental highly methicillin resistant strain COL; format: cell-based, Staphylococcus aureus
Description: as §1

four staphylococcal PBPs = conditions: in vitro; cited from earlier work
[6] = system: mutant RUSA315 (femR315::Tn551); assay: Methicillin MIC, Tn551 insertional mutant RUSA315; format: cell-based; conditions: Staphylococcus aureus
Description: as §1

[7] = system: Tn551 insertional (auxiliary) mutants; assay: Methicillin MIC, Tn551 auxiliary mutants with intact mecA; format: cell-based; conditions: Staphylococcus aureus, read-out: methicillin MIC
MRSA strain COL [8] = conditions: cited from earlier work
[9] = system: Tn551 insertional (auxiliary) mutants; conditions: cited from earlier work

Cc1nnc(SCC2=C(C(=O)O)N3C(=O)[C@@H](NC(=O)Cn4cnnn4)[C@H]3SC2)s1 [cefazoline, cefazolin]
antimicrobial susceptibility (disk, inhibition zone) (SWTD5 (RUSA12F/pGCSW-3)): restored resistance
antimicrobial susceptibility (disk, inhibition zone) (SWTD3 (RUSA315/pGCSW-3) [1]): restored resistance

COc1cccc(OC)c1C(=O)N[C@@H]1C(=O)N2[C@@H]1SC(C)(C)[C@@H]2C(=O)O [methicillin]
methicillin MIC [2]: 1 to 2 µg/mL
MIC [3]: about 4 μg/ml
critical concentration at which a new cell wall synthetic machinery, presumably PBP2A, takes over (strain COL): about 5 mg/L
level of methicillin resistance by population analysis (SWTD3 (RUSA315/pGCSW-3) [4]): same level of methicillin resistance as the parental Mc^r strain COL
MIC (MRSA strain COL [5]; Staphylococcus aureus, MRSA, read-out: methicillin MIC): 1600 µg/mL (≈ 4210 µM)
methicillin MIC (MRSA strain COL [5]; parental MRSA strain COL): 1600 µg/mL
methicillin concentration range within which all four normal PBPs become fully acylated (four staphylococcal PBPs): 5 to 10 mg/L
antimicrobial susceptibility (disk, inhibition zone) (SWTD5 (RUSA12F/pGCSW-3)): restored resistance
MIC [6]: 12 to 25 µg/mL (≈ 31.5 to 65.7 µM)
MIC ([6]; RUSA315, Tn551 insert Ω720, read-out: methicillin MIC): 1.5 µg/mL (≈ 3.94 µM)
MIC [7]: 1.5 to 200 µg/mL (≈ 3.94 to 526 µM)
methicillin MIC (MRSA strain COL [8]; highly resistant strain COL): 1600 µg/mL
MIC (MRSA strain COL [8]; parental bacterium before Tn551 inactivation): 1600 µg/mL (≈ 4210 µM)
methicillin MIC ([9]; Tn551 mutants still producing normal amounts of PBP2A): 3 µg/mL
MIC ([9]; inactivation of auxiliary genes, PBP2A present): 3 mg methicillin per liter
antimicrobial susceptibility (disk, inhibition zone) (SWTD3 (RUSA315/pGCSW-3) [1]): restored resistance

ampicillin/sulbactam [ampicillinisulbactam]
antimicrobial susceptibility (disk, inhibition zone) (SWTD5 (RUSA12F/pGCSW-3)): restored resistance
antimicrobial susceptibility (disk, inhibition zone) (SWTD3 (RUSA315/pGCSW-3) [1]): restored resistance

penicillin
antimicrobial susceptibility (disk, inhibition zone) (SWTD5 (RUSA12F/pGCSW-3)): restored resistance
antimicrobial susceptibility (disk, inhibition zone) (SWTD3 (RUSA315/pGCSW-3) [1]): restored resistance
